Converted amounts (≈) assume the structure as drawn.
Experiments:
[1] = system: Spy 838 (gram+); test: Bacterial susceptibility testing in liquid media (MIC); assay type: cell-based; conditions: Streptococcus pyogenes; lowest concentration reducing growth by 80% or more; 37° C., 24 hrs
Source text: (§1) Compounds may be tested for antimicrobial activity by susceptibility testing in liquid media. Compounds may be dissolved in dimethylsulfoxide and tested in 10 doubling dilutions in the susceptibility assays. The organisms used in the assay may be grown overnight on suitable agar media and then suspended in a liquid medium appropriate for the growth of the organism. The suspension can be a 0.5 McFarland and a further 1 in 10 dilution can be made into the same liquid medium to prepare the final organism suspension in 100 μL. Plates can be incubated under appropriate conditions at 37° C. for 24 hrs prior to reading. The Minimum Inhibitory Concentration (MIC) may be determined as the lowest drug concentration able to reduce growth by 80% or more.

[2] = system: Spn 548 (gram+); test: as above; assay type: cell-based; conditions: Streptococcus pneumoniae; lowest concentration reducing growth by 80% or more; 37° C., 24 hrs
Source text: as §1

[3] = system: Mca 445 (gram−); test: as above; assay type: cell-based; conditions: Moraxella catarrhalis; lowest concentration reducing growth by 80% or more; 37° C., 24 hrs
Source text: as §1

[4] = molecular target: S. pneumoniae Topoisomerase IV ATPase (ParE) (Streptococcus pneumoniae serotype 4, UniProt Q59961); test: S. pneumoniae Topoisomerase IV ATPase inhibition; assay type: biochemical; conditions: values marked * are an average of two or more data points, read-out: % Inh (13 μM) of S. pneumoniae Topoisomerase IV ATPase
Summary of the method: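 Phosphate release by ParE ATPase from S. pneumoniae read colorimetrically (malachite green, 650 nm), enzyme 1.25 nM, ATP 160 μM, salmon sperm DNA present, buffer 20 mM Tris pH 8.0 with 8 mM MgCl2. IC50 over 10 compound concentrations, EDTA (20 μM) and DMSO controls defining inhibition range.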

S. pneumoniae Topoisomerase IV ATPase (ParE), sequence (Q59961 whole entry): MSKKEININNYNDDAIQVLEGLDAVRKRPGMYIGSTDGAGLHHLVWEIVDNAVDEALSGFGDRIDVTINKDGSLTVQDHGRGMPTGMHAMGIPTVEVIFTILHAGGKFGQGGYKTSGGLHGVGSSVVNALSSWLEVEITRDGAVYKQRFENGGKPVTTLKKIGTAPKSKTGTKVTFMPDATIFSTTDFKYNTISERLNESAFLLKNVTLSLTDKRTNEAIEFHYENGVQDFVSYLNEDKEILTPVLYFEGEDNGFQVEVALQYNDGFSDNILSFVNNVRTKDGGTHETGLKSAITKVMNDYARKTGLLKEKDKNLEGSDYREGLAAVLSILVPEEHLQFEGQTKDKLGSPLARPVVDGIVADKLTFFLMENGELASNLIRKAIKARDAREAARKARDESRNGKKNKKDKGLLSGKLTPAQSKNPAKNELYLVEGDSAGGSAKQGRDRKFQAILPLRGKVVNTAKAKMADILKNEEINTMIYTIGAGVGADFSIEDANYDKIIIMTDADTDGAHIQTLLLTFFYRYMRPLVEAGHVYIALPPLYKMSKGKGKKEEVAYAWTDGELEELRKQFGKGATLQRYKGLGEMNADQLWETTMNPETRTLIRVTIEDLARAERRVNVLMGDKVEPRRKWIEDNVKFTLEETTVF

Compound | MIC [1] | MIC [2] | MIC [3] | inhibition at 13 µM [4]
NCCCNc1nc(Nc2ccc(F)c(Cl)c2)ncc1-c1cncnc1 [Ex 211] | 25 µM (≈ 9.35 µg/mL) | 25 µM (≈ 9.35 µg/mL) | 12.5 µM (≈ 4.67 µg/mL) | 76.6%
O=C(O)c1ccc(-c2cnc(Nc3ccc(F)c(Cl)c3)nc2N2CCOCC2)s1 [Example 176, 5-(2-(3-chloro-4-fluorophenylamino)-4-morpholinopyrimidin-5-yl)thiophene-2-carboxylic acid] | 12.5 µM (≈ 5.44 µg/mL) | 6.25 µM (≈ 2.72 µg/mL) | 0.78 µM (≈ 0.339 µg/mL) | 89%
Fc1ccc(Nc2ncc(-c3cncnc3)c(NCCc3ccncc3)n2)cc1Cl [Example 46, N^2-(3-chloro-4-fluorophenyl)-N^4-(2-pyridin-4-ylethyl)-5-pyrimidin-5-ylpyrimidine-2,4-diamine] | 8.84 µM (≈ 3.73 µg/mL) | 3.13 µM (≈ 1.32 µg/mL) | 3.13 µM (≈ 1.32 µg/mL) | 93.5%
O=C(O)Cn1nccc1-c1cnc(Nc2ccc(F)c(Cl)c2)nc1-n1ccc(C(F)(F)F)n1 [Example 1137, 2-(5-(2-(3-chloro-4-fluorophenylamino)-4-(3-(trifluoromethyl)-1H-pyrazol-1-yl)pyrimidin-5-yl)-1H-pyrazol-1-yl)acetic acid] |  |  |  | 100%
CC1(C)[C@@H](C(=O)O)[C@@H]1c1cccc(-c2cnc(Nc3ccc(F)cc3)nc2-n2ccc(C(F)(F)F)n2)c1 [Example 571, (1,3-trans)-3-(3-(2-(4-fluorophenylamino)-4-(3-(trifluoromethyl)-1H-pyrazol-1-yl)pyrimidin-5-yl)phenyl)-2,2-dimethylcyclopropanecarboxylic acid] |  |  |  | 17%
COc1cc(Nc2ncc(-c3cnc(OCCCS(C)(=O)=O)c(C(=O)O)c3)c(-n3ccc(C(F)(F)F)n3)n2)cc(OC)c1 [Example 968, 5-(2-(3,5-dimethoxyphenylamino)-4-(3-(trifluoromethyl)-1H-pyrazol-1-yl)pyrimidin-5-yl)-2-(3-(mehtylsulfonyl)propoxy)nicotinic acid] |  |  |  | 94%
COCCCNc1nc(Nc2ccc(F)c(Cl)c2)ncc1-c1cncc(C(=O)CC(=O)OC)c1 [Example 1040, Methyl 3-(5-(2-(3-chloro-4-fluorophenylamino)-4-(3-methoxypropylamino)pyrimidin-5-yl)pyridin-3-yl)-3-oxopropanoate] |  |  |  | 86%
Cc1ncsc1CCNc1nc(Nc2ccc(F)c(Cl)c2)ncc1-c1cccc(/C=C/C(=O)O)c1 [Example 269, (2E)-3-[3-(2-[(3-chloro-4-fluorophenyl)amino]-4-{[2-(4-methyl-1,3-thiazol-5-yl)ethyl]amino}pyrimidin-5-yl)phenyl]prop-2-enoic acid] |  |  |  | 78%
COc1cc(Nc2ncc(-c3cccc(/C=C/C(=O)O)c3)c(-n3nc(C(F)(F)F)cc3C)n2)cc(S(C)(=O)=O)c1 [Example 653] |  |  |  | 86%
COc1cc(Nc2ncc(-c3cnc(OC)c(C(=O)O)c3)c(-n3nc(C(F)(F)F)nc3C)n2)cc(OC)c1 [Example 1144, 5-(2-(3,5-dimethoxyphenylamino)-4-(5-methyl-3-(trifluoromethyl)-1H-1,2,4-triazol-1-yl)pyrimidin-5-yl)-2-methoxynicotinic acid] |  |  |  | 100%
COc1cc(Nc2ncc(-c3cnc(OC)c(C(=O)NS(=O)(=O)CCN4C(=O)CCC4=O)c3)c(-n3nc(C(F)(F)F)cc3C)n2)cc(OC)c1 [Example 848, 5-{2-[(3,5-dimethoxyphenyl)amino]-4-[5-methyl-3-(trifluoromethyl)-1H-pyrazol-1-yl]pyrimidin-5-yl}-N-{[2-(2,5-dioxopyrrolidin-1-yl)ethyl]sulfonyl}-2-methoxypyridine-3-carboxamide] |  |  |  | 100%
COc1cc(Nc2ncc(-c3cnc(OC)c(C(=O)NS(C)(=O)=O)c3)c(-n3nc(C(F)(F)F)cc3C)n2)cc(C(F)(F)F)c1 [Example 902, 2-methoxy-5-(2-(3-methoxy-5-(trifluoromethyl)phenylamino)-4-(5-methyl-3-(trifluoromethyl)-1H-pyrazol-1-yl)pyrimidin-5-yl)-N-(methylsulfonyl)nicotinamide] |  |  |  | 97%
COc1cc(F)cc(Nc2ncc(-c3cc(C(=O)O)c(=O)n(C)c3)c(-n3ccc(C(F)(F)F)n3)n2)c1 [Example 920, 5-(2-(3-fluoro-5-methoxyphenylamino)-4-(3-(trifluoromethyl)-1H-pyrazol-1-yl)pyrimidin-5-yl)-1-methyl-2-oxo-1,2-dihydropyridine-3-carboxylic acid] |  |  |  | 100%
CN(C)CCCNc1nc(Nc2ccc(F)c(Cl)c2)ncc1-c1cccc(C(=O)NCc2ccccc2)c1 [Example 362, N-benzyl-3-(2-(3-chloro-4-fluorophenylamino)-4-(3-(dimethylamino)propylamino)pyrimidin-5-yl) benzamide] |  |  |  | 107%
O=C(O)c1cncc(-c2cnc(Nc3ccc(F)c(Cl)c3)nc2-n2ccc(-c3ccsc3)n2)c1 [Example 533, 5-{2-[(3-chloro-4-fluorophenyl)amino]-4-[3-(thiophen-3-yl)-1H-pyrazol-1-yl]pyrimidin-5-yl}pyridine-3-carboxylic acid] |  |  |  | 100%
COc1ncc(-c2cnc(Nc3ccc(F)c(Cl)c3)nc2NCCc2c[nH]cn2)cn1 [Example 462, N^2-(3-chloro-4-fluorophenyl)-N^4-[2-(1H-imidazol-4-yl)ethyl]-2′-methoxy-5,5′-bipyrimidine-2,4-diamine] |  |  |  | 85%
O=C(O)[C@H]1CCCN1c1cccc(-c2cnc(Nc3ccc(F)c(Cl)c3)nc2-n2ccc(C(F)(F)F)n2)c1 [Example 600, 1-(3-{2-[(3-chloro-4-fluorophenyl)amino]-4-[3-(trifluoromethyl)-1H-pyrazol-1-yl]pyrimidin-5-yl}phenyl)-D-proline] |  |  |  | 100%

— patent US20100137313A1 (ASTRAZENECA AB, priority 2008, published 2010)
